Type in all cases: cell-based, human
Experiment [1] deals with HUVEC cells. Description: Cell attachment assay (MTS) on coated wells. To be noted: substrate coated at 20, 50, 100 μg/ml (fibronectin 10 and 100 μg/ml), 30 minute incubation, vs BSA 2 mg/ml. The protocol:
Immulon 1B, untreated 96-well plates (CoStar), and untreated 35 mm dishes (CoStar) were purchased from Fisher Scientific (Pittsburg, Pa.). Human umbilical vein endothelial cells (HUVECs), cell culture media and supplements were purchased from Lonza (Basel, Switzerland). EMD peptides as shown in SEQ ID Nos: 1-4, were synthesized by Commonwealth Biotechnologies Inc., (Richmond, Va.). Amino acid analysis was performed on the peptides to verify the amino acid sequence.
For the adhesion studies 96-well Immulon 1B plates were used. Various concentrations of the EMD peptides (SEQ ID Nos: 1-4) were tested for their ability to bind cells, and compared to the full-length protein, from which the EMD peptides were derived as positive controls. Bovine Serum Albumin (BSA) treated wells were used as a negative control. Full-length collagen IV, and the EMD peptides Hep I, Hep III, FCHV, and RGD were tested at concentrations of 20 μg/ml, 50 μg/ml, and 100 μg/ml. Full length fibronectin was tested at concentrations of 10 μg/ml and 100 μg/ml. Negative control wells were coated with BSA at a concentration of 2 mg/ml. Fifty μL of protein or EMD peptide solutions at the various concentrations was added separate wells and incubated at 37° C. for at least 18 hours. The protein or peptide solution was then removed and the wells were blocked for 2 hours at 37° C. with 2 mg/mL BSA solution. Following the blocking procedure, wells were washed twice with PBS. HUVEC cells (Lonza, Basel Switzerland) were then added to the wells at a concentration of 5×10^3 to 1×10^4 cells per well. Following a thirty-minute incubation, […] wells were washed and cell adhesion was determined using an MTS (3-(4,5-dimethylthiazol-2-yl)-5-(3-carboxymethoxyphenyl)-2-(4-sulfophenyl)-2H-tetrazolium, inner salt) tetrazolium/formazan assay (Promega, Madison, Wis.) according to the manufacturer's instructions.

The subject of experiment [2] is HUVEC cells. The experiment in a line: Cell proliferation assay (MTS) on coated wells. To be noted: substrate coated at 20, 50, 100 μg/ml (fibronectin 10 and 100 μg/ml), 1-4 days, vs BSA 2 mg/ml, p<0.05. The protocol: To determine if EMD peptides can activate cells by stimulating cellular proliferation, 96-well plates coated using the same protocol as described above for the cell attachment assay was used. Following treatment of the wells, HUVEC cells (Lonza, Basel Switzerland) were then added to the wells at a concentration of 5×10^3 to 1×10^4 cells per well and incubated under standard culture conditions for 1, 2, 3 or 4 days. Cell proliferation was then determined at the end of the incubation period using an MTS tetrazolium/formazan assay (Promega, Madison, Wis.) according to the manufacturer's instructions.

Experiment [3] relates to HUVEC cells. The experiment in a line: Haptotactic cell migration assay, modified Boyden chamber. The following applies: 6 hours; for haptotactic migration compared to untreated membranes: membrane coated at 500 ng/ml to 300 μg/ml, normalized to uncoated control. The protocol:
In order to test the ability of EMD peptides to recruit cells haptotactic migration assays with Hep I (SEQ ID NO:1), Hep ITT (SEQ TD NO:2), FC/HV (SEQ ID NO:3), RGD (SEQ ID NO:4), FN, and Col IV were conducted using a modified Boyden chamber. Haptotactic migration was performed in triplicate and was assessed using a modified Boyden chamber (Corning, CoStar, Acton, Mass.). The assay was carried out as follows: the lower chamber was first blocked with 10% BSA for at least 30 minutes at 37° C. followed by 3 washings with PBS. The lower surface of the membrane on the upper chamber was coated with approximately 10 μL of protein or EMD peptide solution having a concentration between 500 ng/mL-300 μg/mL and allowed to incubate for 15-30 minutes at 37° C. and then allowed to air dry at room temperature under aseptic conditions. At least one assay was performed for each concentration. Basal cell media supplemented with 0.5% BSA was then added to the lower chamber and 100 μL of H U V ECs (1×10^4 to 2×10^4 cells) in the same cell media was added to the upper chamber. The chambers were then incubated at 37° C., 5.0% CO2 for 6 hours. Upon completion of the incubation period, the cells on the membrane of the upper chamber were fixed with 4% paraformaldehyde followed by removal of the cells on the upper side of the membrane with a Q-tip. Next, the membrane was carefully removed from the chamber, dipped in a 1:4000 dilution of Hoechst 33342 (Invitrogen, Carlsbad, Calif.) and placed on a glass slide. Using a fluorescent microscope (Nikon Eclipse E800) at 10× magnification, five random fields of view were photographed on each membrane for determination of the area cell density.
In order to allow for direct comparison, the area cell density of migrated cells was normalized to the area cell density of migrated cells on the uncoated (0 μg/mL) control membrane. See, FIG. 3.

Entries after “also recorded” stand apart in the source; their conditions may differ. Where no end group is shown, it is not given here.

As to GEFYFDLRLKGDKY-OH [Hep III], in the experiment with HUVEC cells [1] (p<0.05), the “cell attachment compared to BSA control” value is recorded as “increased cell attachment; also recorded: significantly better at promoting cell attachment”. The “cell proliferation (cell activation) compared to BSA control” value in the experiment with HUVEC cells [2] is on record as “increased cellular proliferation; also recorded: significantly better at promoting cell proliferation”. Further, in the experiment on HUVEC cells [3] (p<0.05), the “haptotactic migration compared to untreated membranes” value is on record as “significant migration compared to control; also recorded: promoted haptotactic migration”.

Regarding GRGDSPASSPISC-OH, in the experiment with HUVEC cells [1] (p<0.05), the “cell attachment compared to BSA control” value is “increased cell attachment; also recorded: significantly better at promoting cell attachment”. The “cell proliferation (cell activation) compared to BSA control” value in the experiment on HUVEC cells [2] was “increased cellular proliferation; also recorded: significantly better at stimulating cellular proliferation”. Besides, the “haptotactic migration compared to untreated membranes” value in the experiment on HUVEC cells [3] (p<0.05) is “significant migration compared to control; also recorded: promoted haptotactic migration”.

Consider TAGSCLRKFSTMY-OH [Hep I], for which the “cell attachment compared to BSA control” value with HUVEC cells [1] (p<0.05) is reported as “not statistically different from that of the BSA treated wells; also recorded: not significantly different from that of the BSA control”. For the same substance, the “cell proliferation (cell activation) compared to BSA control” value with HUVEC cells [2] is reported as “increased cellular proliferation; also recorded: significantly better at promoting cell proliferation”. In addition, the “concentrations showing statistically significant migration” value with HUVEC cells [3] (coated membrane, vs uncoated control membrane) is on record as “greater than 1 μg/ml”. In the experiment with HUVEC cells [3] (p<0.05), the “haptotactic migration compared to untreated membranes” value is on record as “promoted haptotactic migration”.

For WQPPRARI-OH [FCHV], the “cell attachment compared to BSA control” value in the experiment with HUVEC cells [1] (p<0.05) was “not statistically different from that of the BSA treated wells; also recorded: not significantly different from that of the BSA control”. For the same substance, in the experiment on HUVEC cells [2], the “cell proliferation (cell activation) compared to BSA control” value is reported as “not different from that of cells cultured in wells coated with BSA; also recorded: not statistically different as compared to the BSA control”. Moreover, the “haptotactic migration compared to untreated membranes” value was “did not promote haptotactic migration” in the experiment with HUVEC cells [3] (p<0.05) and “did not show statistically significant migration at any of the concentrations tested” with HUVEC cells [3] (p<0.05, listed as FC/HV).

Turning to “fibronectin: Full length fibronectin, positive control [reference compound]”, the “cell attachment compared to BSA control” value was “significantly better at promoting cell attachment” with HUVEC cells [1] (p<0.05) and “increased cell attachment” with HUVEC cells [1] (p<0.05, listed as Fibronectin). Further, in the experiment on HUVEC cells [2], the “cell proliferation (cell activation) compared to BSA control” value is listed as “increased cellular proliferation; also recorded: significantly better at stimulating cellular proliferation”. Also, the “haptotactic migration compared to untreated membranes” value in the experiment on HUVEC cells [3] (p<0.05) is given as “promoted haptotactic migration”.

The values are drawn from US8889140B2, “Compositions and methods for tissue repair” (TransTarget, Inc., priority 2007, dated 2014).
